# Measured values taken from patent US20230085307A1, “PYRIDAZINONE COMPOUND AND HERBICIDE” (NISSAN CHEMICAL CORPORATION, priority 2019, published 2023).
# Key:
# [1] = system: false cleavers; assay: Test Example 5: herbicidal effect by foliage application, plastic box (Table 20, symbol Q); type: in vivo, false cleavers (Galium spurium); settings: foliage application; for effect on false cleavers (Q) / herbicidal effect on Q: false cleavers / herbicidal effect grade, Q: false cleavers: 320 g/ha; for effect on false cleavers (Q): 3 weeks after application; for Q: false cleavers, herbicidal effect (criteria 0-5) / herbicidal effect on Q: false cleavers: evaluated three weeks after application
# How it was run: (§1)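 Plants were sown into sterilized diluvial soil under about 1.5 cm cover and kept in a greenhouse at 25° C. to 30° C. Fourteen days on, foliage received an even spray of the diluted emulsion. Herbicidal or crop effect was judged three weeks afterwards.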
# [2] = system: wild oat; assay: Test Example 4: herbicidal effect by soil treatment (Table 19, symbol I); type: in vivo, wild oat (Avena fatua)
# How it was run: (§2)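 In this soil treatment, the formulated compound reached the seeds only through the soil: seeds were buried about 1.5 cm deep in sterilized diluvial soil, then the diluted emulsion was sprayed over the surface. After three weeks at 25° C. to 30° C. in a greenhouse, effects were graded on criteria from an earlier test.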
# [3] = system: false cleavers; assay: Test Example 4: herbicidal effect by soil treatment (Table 19, symbol Q); type: in vivo, false cleavers (Galium spurium)
# How it was run: as §2
# [4] = system: transplanted rice; assay: Test Example 1: effect on crop, application before weed generation under submerged conditions (Table 16, symbol a); type: in vivo; settings: 320 g/ha applied herbicide
# Source text: [Test Example 1] Herbicidal Activity Test by Application before Weed Generation under Submerged Conditions After alluvial soil was placed into 1/10000 are of Wagner pot, water was poured and mixed to form a submerged condition having a water depth of 4 cm. Seeds of late watergrass, Japanese bulrush, and oval-leafed pondweed were sowed in a mixed manner in the aforementioned pot, and then 2.5 leaf stage rice plant seedlings were transplanted thereto. On the day of sowing seeds, the emulsion agent of the compound of the present invention prepared according to Formulation Example 2 was diluted with water so as to achieve a predetermined herbicide amount, and the diluted emulsion agent was applied to the surface of the water. The pot was placed in a greenhouse at 25° C. to 30° C. for growth of the plants. Three weeks after the herbicide application, the effect of the herbicide on each plant was evaluated according to the following criteria. Evaluation Criteria 5: Herbicidal rate of 90% or more (almost completely withered) 4: Herbicidal rate of 70% or more and less than 90% 3: Herbicidal rate of 40% or more and less than 70% 2: Herbicidal rate of 20% or more and less than 40% 1: Herbicidal rate of 5% or more and less than 20% 0: Herbicidal rate of 5% or less (almost no effect)
# [5] = system: corn; assay: Test Example 4: effect on crop by soil treatment (Table 19, symbol c); type: in vivo; settings: 320 g/ha
# How it was run: as §2
# [6] = system: beet; assay: Test Example 4: effect on crop by soil treatment (Table 19, symbol f); type: in vivo; settings: 320 g/ha
# How it was run: as §2
# [7] = system: soybean; assay: Test Example 4: effect on crop by soil treatment (Table 19, symbol d); type: in vivo; settings: 320 g/ha
# How it was run: as §2
# [8] = system: soybean; assay: Test Example 5: effect on crop by foliage application, plastic box (Table 20, symbol d); type: in vivo; settings: 320 g/ha, 3 weeks after application
# How it was run: as §1
# [9] = system: directly sowed rice; assay: Test Example 3: effect on crop by foliage application, Wagner pot (Table 18, symbol b); type: in vivo; settings: 320 g/ha
# How it was run: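 Plants were sown in alluvial soil held under 0.1–0.5 cm standing water and grown 14 days in a greenhouse at 25–30 °C. An emulsifiable formulation, water-diluted to the set dose, was then sprayed onto the foliage, and effects were scored three weeks later using previously defined criteria.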
# [10] = system: beet; assay: Test Example 5: effect on crop by foliage application, plastic box (Table 20, symbol f); type: in vivo; settings: 320 g/ha, 3 weeks after application
# How it was run: as §1
# [11] = system: wheat; assay: Test Example 5: effect on crop by foliage application, plastic box (Table 20, symbol e); type: in vivo; settings: 320 g/ha, 3 weeks after application
# How it was run: as §1
# [12] = system: rapeseed; assay: Test Example 5: effect on crop by foliage application, plastic box (Table 20, symbol g); type: in vivo; settings: 320 g/ha, 3 weeks after application
# How it was run: as §1
# [13] = system: rapeseed; assay: Test Example 4: effect on crop by soil treatment (Table 19, symbol g); type: in vivo; settings: 320 g/ha
# How it was run: as §2
# [14] = system: wheat; assay: Test Example 4: effect on crop by soil treatment (Table 19, symbol e); type: in vivo; settings: 320 g/ha
# How it was run: as §2
# [15] = system: corn; assay: Test Example 5: effect on crop by foliage application, plastic box (Table 20, symbol c); type: in vivo; settings: 320 g/ha, 3 weeks after application
# How it was run: as §1
# [16] = amount of applied herbicide 320 g/ha
# [17] = amount of applied herbicide 274 g/ha
# [18] = amount of applied herbicide 80 g/ha
compound,measurement,setting,value
Cc1nn(C)c(=O)c(-c2c(-c3ccc(F)cc3)sc3ccc(F)cc23)c1O [2-001],effect on false cleavers (Q),[1],5 (Herbicidal rate of 90% or more (almost completely withered))
same,"I: wild oat, herbicidal effect rating",[2]; AAH 320 g/ha,3 (Herbicidal rate of 40% or more and less than 70%)
CCCC(=O)Oc1c(C)nn(C)c(=O)c1-c1c(-c2ccc(SC)cc2)sc2ccccc12 [1-037],"herbicidal effect rating, Q: false cleavers",[3]; [16],0 (Herbicidal rate of 5% or less (almost no effect))
same,"herbicidal effect rating, I: wild oat",[2]; [16],0 (Herbicidal rate of 5% or less (almost no effect))
CCCOc1ccc(-c2sc3ccc(F)cc3c2-c2c(OC(=O)CCC)c(C)nn(C)c2=O)cc1 [2-033],effect on false cleavers (Q),[1],5 (Herbicidal rate of 90% or more (almost completely withered))
same,"herbicidal effect rating, I: wild oat",[2]; 320 g/ha,0 (Herbicidal rate of 5% or less (almost no effect))
C=CCOC(=O)Oc1c(C)nn(C)c(=O)c1-c1c(-c2ccc(OC(F)F)cc2)sc2ccc(F)cc12 [2-294],"Q: false cleavers, herbicidal effect (criteria 0-5)",[1]; AAH 320 g/ha,5 (Herbicidal rate of 90% or more (almost completely withered))
same,herbicidal effect on I: wild oat,[2]; [16],1 (Herbicidal rate of 5% or more and less than 20%)
Cc1nn(C)c(=O)c(-c2c(-c3ccc4c(c3)OCCO4)sc3ccccc23)c1O [1-089],"herbicidal effect rating, Q: false cleavers",[3]; [16],5 (Herbicidal rate of 90% or more (almost completely withered))
same,"herbicidal effect rating, I: wild oat",[2]; [16],0 (Herbicidal rate of 5% or less (almost no effect))
"Cc1nn(C)c(=O)c(-c2c(-c3ccc(Cl)cc3)sc3ccc(F)cc23)c1O [Compound No. 2-010, 4-(2-(4-chlorophenyl)-5-fluorobenzo[b]thiophen-3-yl)-5-hydroxy-2,6-dimethylpyridazin-3(2H)-one]",Effect on crop a: transplanted rice (grade 0-5),[4],0 (Herbicidal rate of 5% or less (almost no effect))
same,melting point,,258 to 259 °C
same,"effect rating on crop, c: corn",[5],0 (Herbicidal rate of 5% or less (almost no effect))
same,"effect rating on crop, f: beet",[6],3 (Herbicidal rate of 40% or more and less than 70%)
same,"effect rating on crop, d: soybean",[7],0 (Herbicidal rate of 5% or less (almost no effect))
same,effect on soybean (d),[8],3 (Herbicidal rate of 40% or more and less than 70%)
same,"effect on crop b (directly sowed rice), rating 0-5",[9],0 (Herbicidal rate of 5% or less (almost no effect))
same,effect on beet (f),[10],5 (Herbicidal rate of 90% or more (almost completely withered))
same,"herbicidal effect rating, I: wild oat",[2]; 320 g/ha,1 (Herbicidal rate of 5% or more and less than 20%)
same,effect on wheat (e),[11],0 (Herbicidal rate of 5% or less (almost no effect))
same,effect on rapeseed (g),[12],5 (Herbicidal rate of 90% or more (almost completely withered))
same,"effect rating on crop, g: rapeseed",[13],3 (Herbicidal rate of 40% or more and less than 70%)
same,"effect rating on crop, e: wheat",[14],0 (Herbicidal rate of 5% or less (almost no effect))
same,effect on corn (c),[15],0 (Herbicidal rate of 5% or less (almost no effect))
COc1ccccc1-c1sc2cc(C)ccc2c1-c1c(O)c(C)nn(C)c1=O [3-049],"Q: false cleavers, herbicidal effect grade","[1]; 274 g/ha, three weeks after application",5 (Herbicidal rate of 90% or more (almost completely withered))
same,"Q: false cleavers, herbicidal effect grade",[3]; [17],3 (Herbicidal rate of 40% or more and less than 70%)
same,"I: wild oat, herbicidal effect grade",[2]; [17],3 (Herbicidal rate of 40% or more and less than 70%)
CCCC(=O)Oc1c(C)nn(C)c(=O)c1-c1c(-c2ccc(OC(C)C)cc2)sc2ccc(F)cc12 [2-035],effect on false cleavers (Q),[1],4 (Herbicidal rate of 70% or more and less than 90%)
same,"herbicidal effect rating, I: wild oat",[2]; 320 g/ha,0 (Herbicidal rate of 5% or less (almost no effect))
CCCC(=O)Oc1c(C)nn(C)c(=O)c1-c1c(-c2ccc3c(c2)OCO3)sc2ccc(F)cc12 [2-091],herbicidal effect on Q: false cleavers,[1],4 (Herbicidal rate of 70% or more and less than 90%)
same,"herbicidal effect rating, I: wild oat",[2]; 320 g/ha,0 (Herbicidal rate of 5% or less (almost no effect))
C=CCOc1ccccc1-c1sc2ccccc2c1-c1c(O)c(C)nn(C)c1=O [1-110],"Q: false cleavers, herbicidal effect","[1]; AAH 320 g/ha, three weeks after application",5 (Herbicidal rate of 90% or more (almost completely withered))
same,"herbicidal effect rating, I: wild oat",[2]; [16],1 (Herbicidal rate of 5% or more and less than 20%)
CCCCOc1ccc(-c2sc3ccccc3c2-c2c(OC(=O)CCC)c(C)nn(C)c2=O)cc1 [1-025],"herbicidal effect grade, Q: false cleavers",[1]; three weeks after application,3 (Herbicidal rate of 40% or more and less than 70%)
same,"herbicidal effect rating, Q: false cleavers",[3]; [16],0 (Herbicidal rate of 5% or less (almost no effect))
same,"herbicidal effect rating, I: wild oat",[2]; [16],0 (Herbicidal rate of 5% or less (almost no effect))
CCCC(=O)Oc1c(C)nn(C)c(=O)c1-c1c(-c2ccc(OC)cc2)sc2ccc(F)cc12 [2-027],effect on false cleavers (Q),[1],0 (Herbicidal rate of 5% or less (almost no effect))
same,"herbicidal effect rating, Q: false cleavers",[3]; 320 g/ha,0 (Herbicidal rate of 5% or less (almost no effect))
same,"herbicidal effect rating, I: wild oat",[2]; 320 g/ha,2 (Herbicidal rate of 20% or more and less than 40%)
COc1cccc(S(=O)(=O)Oc2c(C)nn(C)c(=O)c2-c2c(-c3ccc(OC(F)F)cc3)sc3ccc(F)cc23)c1 [2-313],"Q: false cleavers, herbicidal effect (criteria 0-5)",[1]; AAH 320 g/ha,5 (Herbicidal rate of 90% or more (almost completely withered))
same,herbicidal effect on I: wild oat,[2]; [16],0 (Herbicidal rate of 5% or less (almost no effect))
Cc1nn(C)c(=O)c(-c2c(-c3ccc(OC(C)C)cc3)sc3ccccc23)c1O [1-020],"herbicidal effect rating, Q: false cleavers",[3]; [16],0 (Herbicidal rate of 5% or less (almost no effect))
same,"herbicidal effect rating, I: wild oat",[2]; [16],0 (Herbicidal rate of 5% or less (almost no effect))
CCCC(=O)Oc1c(C)nn(C)c(=O)c1-c1c(-c2ccc(F)cc2OCC)oc2ccc(C)cc12 [9-010],herbicidal effect on false cleavers (Q),"[1]; 246 g/ha, three weeks after application",3 (Herbicidal rate of 40% or more and less than 70%)
same,"I: wild oat, herbicidal effect grade",[2]; amount of applied herbicide 246 g/ha,0 (Herbicidal rate of 5% or less (almost no effect))
Cc1nn(C)c(=O)c(-c2c(-c3ccc(OCC(F)F)cc3)sc3ccccc23)c1O [1-203],effect on false cleavers (Q),[1],5 (Herbicidal rate of 90% or more (almost completely withered))
same,"I: wild oat, herbicidal effect rating",[2]; AAH 320 g/ha,1 (Herbicidal rate of 5% or more and less than 20%)
Cc1nn(C)c(=O)c(-c2c(-c3ccc(CSCC(F)(F)F)cc3)sc3ccc(F)cc23)c1O [2-331],herbicidal effect on Q: false cleavers,[3]; [16],0 (Herbicidal rate of 5% or less (almost no effect))
same,herbicidal effect on I: wild oat,[2]; [16],0 (Herbicidal rate of 5% or less (almost no effect))
CCOc1ccccc1-c1sc2cc(OC)ccc2c1-c1c(O)c(C)nn(C)c1=O [3-070],"Q: false cleavers, herbicidal effect grade","[1]; 80 g/ha, three weeks after application",5 (Herbicidal rate of 90% or more (almost completely withered))
same,"Q: false cleavers, herbicidal effect grade",[3]; [18],1 (Herbicidal rate of 5% or more and less than 20%)
same,"I: wild oat, herbicidal effect grade",[2]; [18],0 (Herbicidal rate of 5% or less (almost no effect))
CCCCOc1ccc(-c2sc3ccccc3c2-c2c(O)c(C)nn(C)c2=O)cc1 [1-024],"herbicidal effect grade, Q: false cleavers",[1]; three weeks after application,4 (Herbicidal rate of 70% or more and less than 90%)
same,"herbicidal effect rating, Q: false cleavers",[3]; [16],0 (Herbicidal rate of 5% or less (almost no effect))
same,"herbicidal effect rating, I: wild oat",[2]; [16],0 (Herbicidal rate of 5% or less (almost no effect))
CCCOc1ccc(-c2sc3ccccc3c2-c2c(O)c(C)nn(C)c2=O)cc1 [1-019],"herbicidal effect grade, Q: false cleavers",[1]; three weeks after application,3 (Herbicidal rate of 40% or more and less than 70%)
same,"herbicidal effect rating, Q: false cleavers",[3]; [16],0 (Herbicidal rate of 5% or less (almost no effect))
same,"herbicidal effect rating, I: wild oat",[2]; [16],0 (Herbicidal rate of 5% or less (almost no effect))
COc1ccccc1-c1sc2ccc(Cl)cc2c1-c1c(O)c(C)nn(C)c1=O [2-101],herbicidal effect on Q: false cleavers,[1],5 (Herbicidal rate of 90% or more (almost completely withered))
same,"Q: false cleavers, herbicidal effect rating",[3]; [16],5 (Herbicidal rate of 90% or more (almost completely withered))
same,"I: wild oat, herbicidal effect rating",[2]; [16],0 (Herbicidal rate of 5% or less (almost no effect))
CCCC(=O)Oc1c(C)nn(C)c(=O)c1-c1c(-c2ccc(C(C)=O)cc2)sc2ccc(F)cc12 [2-078],"herbicidal effect rating, I: wild oat",[2]; 320 g/ha,0 (Herbicidal rate of 5% or less (almost no effect))
